Experimental data taken from patent US20070161637A1, “Substituted pyridin-2-ylamine analogues” (Neurogen Corporation, priority 2003, published 2007).

What follows are compounds tested against T1, human capsaicin receptor (Homo sapiens, UniProt Q8NER1) (assay: Calcium mobilization assay, determination of antagonist activity (Example 6)). Settings: concentration giving 50% decrease in the fluorescence response of cells expressing human capsaicin receptor exposed to capsaicin.
T1 construct: transfected with the pBK-CMV expression construct encoding the full length human capsaicin receptor; expressed in transfected cells; host or cells: HEK293, stably transfected clonal lines, plasmid pBK-CMV
T1 sequence (Q8NER1 whole entry): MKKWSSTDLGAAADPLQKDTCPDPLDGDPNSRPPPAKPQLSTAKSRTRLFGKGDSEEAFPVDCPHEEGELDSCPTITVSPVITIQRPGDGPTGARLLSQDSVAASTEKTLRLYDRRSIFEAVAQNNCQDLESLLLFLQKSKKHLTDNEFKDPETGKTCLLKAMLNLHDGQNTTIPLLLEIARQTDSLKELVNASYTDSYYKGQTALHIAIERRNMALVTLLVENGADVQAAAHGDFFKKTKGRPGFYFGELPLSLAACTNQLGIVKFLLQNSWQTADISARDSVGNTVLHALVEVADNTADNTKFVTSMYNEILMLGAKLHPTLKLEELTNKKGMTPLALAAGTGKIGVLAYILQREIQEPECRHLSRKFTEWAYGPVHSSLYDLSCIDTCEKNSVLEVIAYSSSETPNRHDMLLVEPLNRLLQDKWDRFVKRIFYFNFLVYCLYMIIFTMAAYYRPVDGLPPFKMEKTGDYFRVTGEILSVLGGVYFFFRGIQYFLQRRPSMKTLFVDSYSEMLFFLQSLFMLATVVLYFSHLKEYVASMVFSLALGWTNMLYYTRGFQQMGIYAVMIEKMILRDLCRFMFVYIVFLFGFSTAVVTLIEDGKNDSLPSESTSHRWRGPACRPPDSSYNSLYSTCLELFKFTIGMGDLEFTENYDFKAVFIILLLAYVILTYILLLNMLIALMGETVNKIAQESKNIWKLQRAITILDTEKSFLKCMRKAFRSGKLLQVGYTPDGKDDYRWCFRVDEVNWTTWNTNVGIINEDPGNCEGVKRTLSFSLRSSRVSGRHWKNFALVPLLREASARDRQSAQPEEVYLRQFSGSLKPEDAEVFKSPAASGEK
Format: cell-based
Method: A cDNA encoding full length human capsaicin receptor (SEQ ID NO:1, 2 or 3 of U.S. Pat. No. 6,482,611) was subcloned in the plasmid pBK-CMV (Stratagene, La Jolla, Calif.) for recombinant expression in mammalian cells.
Human embryonic kidney (HEK293) cells were transfected with the pBK-CMV expression construct encoding the full length human capsaicin receptor using standard methods. The transfected cells were selected for two weeks in media containing G418 (400 μg/ml) to obtain a pool of stably transfected cells. Independent clones were isolated from this pool by limiting dilution to obtain clonal stable cell lines for use in subsequent experiments.
Cells transfected with expression plasmids (as described in Example 4) and thereby expressing human capsaicin receptor are seeded and grown to 70-90% confluency in FALCON black-walled, clear-bottomed 96-well plates (#3904, BECTON-DICKINSON, Franklin Lakes, N.J.). The culture medium is emptied from the 96 well plates and FLUO-3 AM calcium sensitive dye (Molecular Probes, Eugene, Oreg.) is added to each well (dye solution: 1 mg FLUO-3 AM, 440 μL DMSO and 440 μl 20% pluronic acid in DMSO, diluted 1:250 in Krebs-Ringer HEPES (KRH) buffer (25 mM HEPES, 5 mM KCl, 0.96 mM NaH2PO4, 1 mM MgSO4, 2 mM CaCl2, 5 mM glucose, 1 mM probenecid, pH 7.4), 50 μl diluted solution per well). Plates are covered with aluminum foil and incubated at 37° C. for 1-2 hours in an environment containing 5% CO2. After the incubation, the dye is emptied from the plates, and the cells are washed once with KRH buffer, and resuspended in KRH buffer.
To measure the ability of a test compound to agonize or antagonize a calcium mobilization response in cells expressing capsaicin receptors to capsaicin or other vanilloid agonist, the EC50 of the agonist capsaicin is first determined. An additional 20 μl of KRH buffer and 1 μl DMSO is added to each well of cells, prepared as described above. 100 μl capsaicin in KRH buffer is automatically transferred by the FLIPR instrument to each well. Capsaicin-induced calcium mobilization is monitored using either FLUOROSKAN ASCENT (Labsystems; Franklin, Mass.) or FLIPR (fluorometric imaging plate reader system; Molecular Devices, Sunnyvale, Calif.) instruments. Data obtained between 30 and 60 seconds after agonist application are used to generate an 8-point concentration response curve, with final capsaicin concentrations of 1 nM to 3 μM. […] software (Synergy Software, Reading, Pa.) is used to fit the data to the equation: y=a*(1/(1+(b/x)^c)) to determine the 50% excitatory concentration (EC50) for the response. In this equation, y is the maximum fluorescence signal, x is the concentration of the agonist or antagonist (in this case, capsaicin), a is the Emax, b corresponds to the EC50 value and c is the Hill coefficient. Determination Agonist Activity
Test compounds are dissolved in DMSO, diluted in 20 μl KRH buffer so that the final concentration of test compounds in the assay well is between 1 μM and 5 μM, and added to cells prepared as described above. The 96 well plates containing prepared cells and test compounds are incubated in the dark, at room temperature for 0.5 to 6 hours. It is important that the incubation not continue beyond 6 hours. Just prior to determining the fluorescence response, 100 μl capsaicin in KRH buffer at twice the EC50 concentration determined as described above is automatically added by the FLIPR instrument to each well of the 96 well plate for a final sample volume of 200 μl and a final capsaicin concentration equal to the EC50. The final concentration of test compounds in the assay wells is between 1 μM and 5 μM.
For `CC(C)(C)c1ccc(Nc2nc(N)nc(OCc3ccccc3F)n2)cc1` [Compound 31, N-(4-tert-Butyl-phenyl)-6-(2-fluoro-benzyloxy)-[1,3,5]triazine-2,4-diamine], the IC50 was ≤ 1000 nM.
`COc1ccccc1COc1nc(N)nc(Nc2ccc(C(C)(C)C)cc2)n1` [Compound 32, N-(4-tert-Butyl-phenyl)-6-(2-methoxy-benzyloxy)-[1,3,5]triazine-2,4-diamine] was tested, and the IC50 was ≤ 1000 nM.
With `CC(C)(C)c1ccc(Nc2nc(Cl)nc(NCc3ccccc3Cl)n2)cc1` [Compound 33, N-(4-tert-Butyl-phenyl)-6-chloro-N′-(2-chloro-benzyl)-[1,3,5]triazine-2,4-diamine] the IC50 was ≤ 1000 nM.
In the case of `CC(C)(C)c1ccc(Nc2nc(Cl)nc(NCc3ccccc3F)n2)cc1` [Compound 34, N-(4-tert-Butyl-phenyl)-6-chloro-N′-(2-fluoro-benzyl)-[1,3,5]triazine-2,4-diamine], the IC50 is reported as ≤ 1000 nM.
For `COc1ccccc1CNc1nc(Cl)nc(Nc2ccc(C(C)(C)C)cc2)n1` [Compound 35, N-(4-tert-Butyl-phenyl)-6-chloro-N′-(2-methoxy-benzyl)-[1,3,5]triazine-2,4-diamine], the IC50 was ≤ 1000 nM.
`CC(C)(C)c1ccc(Nc2nc(Cl)nc(NCc3ccccc3C(F)(F)F)n2)cc1` [Compound 36, N-(4-tert-Butyl-phenyl)-6-chloro-N′-(2-trifluoromethyl-benzyl)-[1,3,5]triazine-2,4-diamine] was tested, and the IC50 was ≤ 1000 nM.
For `CC(C)(C)c1ccc(Nc2nc(N)nc(NCc3ccccc3Cl)n2)cc1` [Compound 37, N-(4-tert-Butyl-phenyl)-N′-(2-chloro-benzyl)-[1,3,5]triazine-2,4,6-triamine], the IC50 was ≤ 1000 nM.
In the case of `CCOc1nc(NCc2ccccc2Cl)nc(Nc2ccc(C(C)(C)C)cc2)n1` [Compound 38, N-(4-tert-Butyl-phenyl)-N′-(2-chloro-benzyl)-6-ethoxy-[1,3,5]triazine-2,4-diamine], the IC50 is reported as ≤ 1000 nM.
With `COc1nc(NCc2ccccc2Cl)nc(Nc2ccc(C(C)(C)C)cc2)n1` [Compound 39, N-(4-tert-Butyl-phenyl)-N′-(2-chloro-benzyl)-6-methoxy-[1,3,5]triazine-2,4-diamine] the IC50 was ≤ 1000 nM.
For `Cc1nc(NCc2ccccc2Cl)nc(Nc2ccc(C(C)(C)C)cc2)n1` [Compound 40, N-(4-tert-Butyl-phenyl)-N′-(2-chloro-benzyl)-6-methyl-[1,3,5]triazine-2,4-diamine], the IC50 was ≤ 1000 nM.
With `CNc1nc(NCc2ccccc2Cl)nc(Nc2ccc(C(C)(C)C)cc2)n1` [Compound 41, N-(4-tert-Butyl-phenyl)-N′-(2-chloro-benzyl)-N″-methyl-[1,3,5]triazine-2,4,6-triamine] the IC50 was ≤ 1000 nM.
In the case of `CC(C)(C)c1ccc(Nc2cc(NCc3ccccc3Cl)ncn2)cc1` [Compound 42, N-(4-tert-Butyl-phenyl)-N′-(2-chloro-benzyl)-pyrimidine-4,6-diamine], the IC50 is reported as ≤ 1000 nM.
For `CC(C)(C)c1ccc(Nc2nc(N)nc(NCc3ccccc3F)n2)cc1` [Compound 43, N-(4-tert-Butyl-phenyl)-N′-(2-fluoro-benzyl)-[1,3,5]triazine-2,4,6-triamine], the IC50 was ≤ 1000 nM.
`CC(C)(C)c1ccc(Nc2cc(NCc3ccccc3F)ncn2)cc1` [Compound 44, N-(4-tert-Butyl-phenyl)-N′-(2-fluoro-benzyl)-pyrimidine-4,6-diamine] was tested, and the IC50 was ≤ 1000 nM.
In the case of `COc1ccccc1CNc1ncnc(Nc2ccc(C(C)(C)C)cc2)n1` [Compound 45, N-(4-tert-Butyl-phenyl)-N′-(2-methoxy-benzyl)-[1,3,5]triazine-2,4-diamine], the IC50 is reported as ≤ 1000 nM.
In the case of `COc1ccccc1CNc1nc(N)nc(Nc2ccc(C(C)(C)C)cc2)n1` [Compound 46, N-(4-tert-Butyl-phenyl)-N′-(2-methoxy-benzyl)-[1,3,5]triazine-2,4,6-triamine], the IC50 is reported as ≤ 1000 nM.
For `COc1ccccc1CNc1cc(Nc2ccc(C(C)(C)C)cc2)ncn1` [Compound 47, N-(4-tert-Butyl-phenyl)-N′-(2-methoxy-benzyl)-pyrimidine-4,6-diamine], the IC50 was ≤ 1000 nM.
With `CC(C)(C)c1ccc(Nc2cc(NCc3ccccc3C(F)(F)F)ncn2)cc1` [Compound 49, N-(4-tert-Butyl-phenyl)-N′-(2-trifluoromethyl-benzyl)-pyrimidine-4,6-diamine] the IC50 was ≤ 1000 nM.
With `CC(C)(C)c1ccc(Nc2cc(NCc3cccc(F)c3)ncn2)cc1` [Compound 50, N-(4-tert-Butyl-phenyl)-N′-(3-fluoro-benzyl)-pyrimidine-4,6-diamine] the IC50 was ≤ 1000 nM.
With `COc1cccc(CNc2cc(Nc3ccc(C(C)(C)C)cc3)ncn2)c1` [Compound 51, N-(4-tert-Butyl-phenyl)-N′-(3-methoxy-benzyl)-pyrimidine-4,6-diamine] the IC50 was ≤ 1000 nM.
In the case of `CC(C)(C)c1ccc(Nc2cc(NCc3ccc(Cl)cc3)ncn2)cc1` [Compound 52, N-(4-tert-Butyl-phenyl)-N′-(4-chloro-benzyl)-pyrimidine-4,6-diamine], the IC50 is reported as ≤ 1000 nM.
In the case of `COc1ccc(CNc2cc(Nc3ccc(C(C)(C)C)cc3)ncn2)cc1` [Compound 53, N-(4-tert-Butyl-phenyl)-N′-(4-methoxy-benzyl)-pyrimidine-4,6-diamine], the IC50 is reported as ≤ 1000 nM.
`CC(C)(C)c1ccc(Nc2nc(NCc3ccccc3Cl)nc(NCc3ccccc3Cl)n2)cc1` [Compound 54, N-(4-tert-Butyl-phenyl)-N′,N″-bis-(2-chloro-benzyl)-[1,3,5]triazine-2,4,6-triamine] was tested, and the IC50 was ≤ 1000 nM.
`COc1ccccc1CNc1nc(NCc2ccccc2OC)nc(Nc2ccc(C(C)(C)C)cc2)n1` [Compound 55, N-(4-tert-Butyl-phenyl)-N′,N″-bis-(2-methoxy-benzyl)-[1,3,5]triazine-2,4,6-triamine] was tested, and the IC50 was ≤ 1000 nM.
In the case of `CC(C)(C)c1ccc(Nc2cc(NCc3ccccn3)ncn2)cc1` [Compound 56, N-(4-tert-Butyl-phenyl)-N′-pyridin-2-ylmethyl-pyrimidine-4,6-diamine], the IC50 is reported as ≤ 1000 nM.
With `CC(C)(C)c1ccc(Nc2cc(NCc3cccnc3)ncn2)cc1` [Compound 57, N-(4-tert-Butyl-phenyl)-N′-pyridin-3-ylmethyl-pyrimidine-4,6-diamine] the IC50 was ≤ 1000 nM.
`CC(C)(C)c1ccc(Nc2cc(NCc3ccncc3)ncn2)cc1` [Compound 58, N-(4-tert-Butyl-phenyl)-N′-pyridin-4-ylmethyl-pyrimidine-4,6-diamine] was tested, and the IC50 was ≤ 1000 nM.
In the case of `CCN(CC)c1nc(Nc2ccc(C(F)(F)F)cc2)nc(OCc2ccccc2C(F)(F)F)n1` [Compound 59, N,N-Diethyl-6-(2-trifluoromethyl-benzyloxy)-N′-(4-trifluoromethyl-phenyl)-[1,3,5]triazine-2,4-diamine], the IC50 is reported as ≤ 1000 nM.
`CC(C)(C)c1ccc(Nc2cc(OCc3ccccc3C(F)(F)F)nc(N)n2)cc1` [Compound 60, N4-(4-tert-Butyl-phenyl)-6-(2-trilfuoromethyl-benzyloxy)-pyrimidine-2,4-diamine] was tested, and the IC50 was ≤ 1000 nM.
`CC(C)(C)c1ccc(Nc2cc(NCc3ccccc3)ncn2)cc1` [Compound 61, N-Benzyl-N′-(4-tert-butyl-phenyl)-pyrimidine-4,6-diamine] was tested, and the IC50 was ≤ 1000 nM.
For `CCCCNc1nc(Nc2ccc(C(F)(F)F)cc2)nc(OCc2ccccc2C(F)(F)F)n1` [Compound 62, N-Butyl-6-(2-trifluoromethyl-benzyloxy)-N′-(4-trifluoromethyl-phenyl)-[1,3,5]triazine-2,4-diamine], the IC50 was ≤ 1000 nM.
`FC(F)(F)c1ccc(Nc2nc(NC3CCC3)nc(OCc3ccccc3C(F)(F)F)n2)cc1` [Compound 63, N-Cyclobutyl-6-(2-trifluoromethyl-benzyloxy)-N′-(4-trifluoromethyl-phenyl)-[1,3,5]triazine-2,4-diamine] was tested, and the IC50 was ≤ 1000 nM.
